Test results published in patent US20230257367A1, “NOVEL THYROID HORMONE BETA RECEPTOR AGONIST” (Chengdu Kanghong Pharmaceutical Co., Ltd., priority 2020, published 2023).

Tests used:
[1] = preclinical toxicological studies; cited from earlier work
[2] = reported clinical data (VK2809 phase I; Eprotirome phase III); cited from earlier work
[3] = biological target: T1, TRα (Homo sapiens, UniProt P10827); experiment: In vitro TRα cell transfection experiment (GAL4 luciferase reporter, HEK293T); assay type: cell-based
T1 construct: host or cells: HEK293T
T1 sequence (P10827 1-410 isoform P10827-2): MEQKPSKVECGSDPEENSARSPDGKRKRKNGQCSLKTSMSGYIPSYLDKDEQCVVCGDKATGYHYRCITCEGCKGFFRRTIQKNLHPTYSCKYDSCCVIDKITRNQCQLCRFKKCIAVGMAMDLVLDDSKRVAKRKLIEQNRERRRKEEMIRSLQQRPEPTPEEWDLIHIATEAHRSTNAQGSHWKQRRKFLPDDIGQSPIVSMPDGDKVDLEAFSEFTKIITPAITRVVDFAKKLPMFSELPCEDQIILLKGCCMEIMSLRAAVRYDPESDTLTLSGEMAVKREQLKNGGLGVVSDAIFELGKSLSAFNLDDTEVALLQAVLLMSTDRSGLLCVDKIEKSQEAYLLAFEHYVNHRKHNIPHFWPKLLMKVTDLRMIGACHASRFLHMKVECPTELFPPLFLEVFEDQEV
T1 sequence (P19793 227-458 partner limits assumed): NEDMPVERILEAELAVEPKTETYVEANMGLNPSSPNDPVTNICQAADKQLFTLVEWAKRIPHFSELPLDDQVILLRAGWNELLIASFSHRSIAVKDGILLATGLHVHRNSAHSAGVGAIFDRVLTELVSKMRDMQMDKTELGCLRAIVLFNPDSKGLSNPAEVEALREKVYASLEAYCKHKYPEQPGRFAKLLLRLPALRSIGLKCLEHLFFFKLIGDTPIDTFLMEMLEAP

[4] = tested on: primary hepatocyte; experiment: Hepatotoxicity detection in vitro (CellTiter-Glo); assay type: cell-based, human; settings: primary hepatocytes; for IC50: Homo sapiens, Hepatocyte, cell viability after 48 hours; for Cell activity at the highest concentration (%): 48 hours, highest working solution concentration 600 μM
Procedure: Information of Primary Hepatocyte
Step 1: a test substance was prepared into a 200 mM DMSO stock solution, and then subjected to 3-times gradient continuous dilution by 7 concentrations, then 1.5 μL of each of the solutions of the 8 concentrations was added into 498.5 μL of incubation culture medium (with a composition referring to Table 5, directly mixed evenly) to prepare a working solution, and the incubation culture medium was preheated at 37° C. before preparation. DMSO was used as a solvent control. DMSO contents in the working solution and the solvent control were both 0.3 vol %. Concentrations of compounds were as follows:
Step 2: Plate Inoculation and Cell Culture
Second Step: Plate Inoculation and Culture of Cells
1) A tube of hepatocytes of the donor used in the experiment preserved at ultra-low temperature was taken, and the hepatocytes were ensured to be still frozen at low temperature before resuscitation. The hepatocytes were quickly placed in a water bath at 37° C. and gently shaken until all ice crystals were dispersed, and were transferred to a biosafety cabinet after spraying 70 vol % ethanol.
2) Contents of hepatocyte tubules were poured into a 50 mL centrifuge tube containing 50 mL of resuscitation culture medium (with a composition referring to Table 3, directly mixed evenly), and centrifuged at 80 g for 8 minutes. After centrifugation, the resuscitation culture medium was sucked out and an inoculation culture medium was added (with a composition referring to Table 4, directly mixed evenly). The cells were counted by AO/PI staining to obtain a cell suspension with a cell density of 0.2×10^6 cells per milliliter.
3) The cell suspension above was inoculated into a 96-well plate coated with collagen I, with 100 μL per well. The culture plate was placed in a 5% CO2 incubator with 95% relative humidity to culture for 4 hours to 6 hours.
4) After incubation for 4 hours to 6 hours, the state of the cells was observed under microscope. The culture plate was shaken gently, the inoculation culture medium was sucked out, and 100 μL of incubation culture medium was added into each well (with a composition referring to Table 5). A toxicity test could be carried out after culturing in the incubator for 18 hours to 20 hours.
5) Before administration, the morphology of the cells was observed under microscope. The culture medium in the culture plate was sucked out, and 100 μL of solvent control (DMSO), or test substance working solution was added into each well. Three parallel samples were tested under each condition.
6) The newly prepared working solution or solvent control was used for solution exchange every 24 hours after dosing.
After the working solution acted for 48 hours, the morphology of the cells was observed under microscope for later use.
Step 3: Cytotoxicity Detection
1) A CellTiter-Glo (Promega, article number G9243) reagent stored at −20° C. was melted in a water bath at 37° C.
2) After the cell culture plate obtained above was incubated for 48 hours, 50 μL of CellTiter-Glo solution was directly added into each experimental well.
3) The cell culture plate was vortexed at 400 rpm for 10 minutes, and incubated at room temperature to stabilize a luminescence signal.
After 10 minutes 100 μL of reaction solution was sucked from each well and transferred to a new white nontransparent-bottom flat plate (Corning 96-well plate Cat No. 3917). The
chemiluminescence value of each well was read by a microplate reader (a luminescence value of the white nontransparent-bottom flat plate was recorded as “a luminescence valueblank”; and a luminescence value of the solvent control was recorded as “a luminescence valuesolvent”).
Cell viability(%)=[(luminescence valueto-be-tested compound−luminescence valueblank)/(luminescence valuesolvent−luminescence valueblank)]×100% […]

[5] = biological target: T2, TRβ (Homo sapiens, UniProt P10828); experiment: In vitro TRβ cell transfection experiment (GAL4 luciferase reporter, HEK293T); assay type: cell-based
T2 construct: host or cells: HEK293T
T2 sequence (P10828 217-461 limits assumed): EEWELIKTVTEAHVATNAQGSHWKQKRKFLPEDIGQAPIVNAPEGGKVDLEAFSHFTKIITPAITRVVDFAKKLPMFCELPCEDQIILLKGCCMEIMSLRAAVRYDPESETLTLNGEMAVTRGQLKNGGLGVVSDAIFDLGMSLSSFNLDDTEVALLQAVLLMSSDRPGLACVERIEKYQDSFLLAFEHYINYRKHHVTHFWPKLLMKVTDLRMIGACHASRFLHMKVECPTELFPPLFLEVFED
T2 sequence (P19793 227-458 partner limits assumed): T1 sequence (P19793 227-458 partner limits assumed)

[6] = biological target: T3, TRα-LBD/RXRα (Homo sapiens, UniProt P10827); experiment: In vitro binding experiment (TR-FRET SRC2-2 co-activator peptide recruitment), TRα; assay type: biochemical; settings: 4 h incubation at room temperature
T3 construct: TRα-LBD (Invitrogen, PV4762), or TRβ-LBD (Invitrogen, PV4764) with a GST tag were used; purchased Invitrogen (TRα-LBD); Pharmaron (RXRα) PV4762
T3 sequence (P19793 whole entry partner, other chains not shown, the tested form may be a part): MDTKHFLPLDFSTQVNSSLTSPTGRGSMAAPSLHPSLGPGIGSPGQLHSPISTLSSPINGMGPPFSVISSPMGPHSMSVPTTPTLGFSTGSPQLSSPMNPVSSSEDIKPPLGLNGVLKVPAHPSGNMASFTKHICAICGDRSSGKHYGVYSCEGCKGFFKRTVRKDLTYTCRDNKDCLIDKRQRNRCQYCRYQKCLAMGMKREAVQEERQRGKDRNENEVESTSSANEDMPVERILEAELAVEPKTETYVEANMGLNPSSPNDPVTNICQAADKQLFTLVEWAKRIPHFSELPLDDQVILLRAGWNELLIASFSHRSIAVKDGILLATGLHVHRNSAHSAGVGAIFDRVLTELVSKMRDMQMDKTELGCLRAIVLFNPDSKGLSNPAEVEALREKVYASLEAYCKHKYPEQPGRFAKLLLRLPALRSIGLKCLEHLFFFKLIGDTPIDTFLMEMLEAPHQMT

[7] = biological target: T4, TRβ-LBD/RXRα (Homo sapiens, UniProt P10828); experiment: In vitro binding experiment (TR-FRET SRC2-2 co-activator peptide recruitment), TRβ; assay type: biochemical; settings: 4 h incubation at room temperature
T4 construct: TRβ-LBD (Invitrogen, PV4764) with a GST tag were used; purchased Invitrogen (TRβ-LBD); Pharmaron (RXRα) PV4764
T4 sequence (P19793 whole entry partner, other chains not shown, the tested form may be a part): as above

Compound: CC(C)c1cc(Oc2c(Br)cc(NC(=O)CC(=O)O)cc2Br)ccc1O [Eprotirome]
- cartilage damage [1]: cartilage injury was also found
- liver enzyme [2]: increase in liver enzyme

Compound: CC(C)c1nc(Oc2c(Cl)cc(-n3nc(C#N)c(=O)[nH]c3=O)cc2Cl)ncc1O [KH03]
- EC50 [3]: 0.826 µM
- IC50 [4]: 264000 nM
- Cell activity at the highest concentration (%) [4]: 0.0421%
- EC50 [5]: 0.089 µM
- EC50 [6]: 0.144 µM
- EC50 [7]: 0.031 µM

Compound: O=c1cnn(-c2cc(Cl)c(Oc3ncc(O)c(Cc4ccccc4)n3)c(Cl)c2)c(=O)[nH]1 [KH10]
- EC50 [3]: 0.269 µM
- IC50 [4]: 160000 nM
- Cell activity at the highest concentration (%) [4]: 0.0142%
- EC50 [5]: 0.032 µM
- EC50 [6]: 1.47 µM
- EC50 [7]: 0.054 µM

Compound: Cc1cc(OCP2(=O)OCC[C@@H](c3cccc(Cl)c3)O2)cc(C)c1Cc1ccc(O)c(C(C)C)c1 (stereo partly shown) [VK2809]
- cartilage damage [1]: cartilage damage was found
- liver enzyme [2]: Liver enzyme increase
